Results published in US20030022821A1, “Bioactive peptides” (priority 1998, published 2003).
≈ marks a conversion by molar mass, not a printed value. Like-named read-outs stand apart in the source and are kept apart here. Square brackets hold non-standard residues; d marks the D form. Ends that are not written are not given here. Peptide text beside a SMILES is read from it. * marks the point of attachment. Trp(2-Pmc) = Cc1c(C)c(S(=O)(=O)c2[nH]c3ccccc3c2C[C@H](N)C(=O)O)c(C)c2c1OC(C)(C)CC2; Bip = N[C@@H](Cc1ccc(-c2ccccc2)cc1)C(=O)O; Fmoc = O=C(OCC1c2ccccc2-c2ccccc21)*; Acm = CC(=O)NC*

Key:
[1] = system: Meth A cells (murine sarcoma cell line); test: Cytotoxicity on Meth A cells, MTT method
Method: Peptide solutions (0.1 ml) were added and the plates incubated at 37° C. for 30 minutes, 4 hours or 24 hours. The cytotoxicity was measured using the MTT method (Mosmann et al., J. Immunol. (1986) 136, 2348-2357).
Cells in the growth phase were harvested and washed in fresh medium and injected subcutaneously into the abdominal region of the mice.
The cytotoxic effect of the peptides on different murine and human tumor cells were measured using the MTT method (Mosmann et al., J. Immunol. (1986) 136, 2348-2357). MTT is a soluble tetrazolium salt yielding a yellow solution when prepared in media or salt solutions lacking phenol red. Dissolved MTT is converted to an insoluble purple formazan by cleavage of the tetrazolium ring by dehydrogenase enzymes. This water insoluble formazan can be solubilized using isopropanol or other solvents and the dissolved material is measured spectrophotometrically. The absorbance was measured as a function of concentration of converted dye.
Cells were maintained in […] medium containing 10% FBS, 1% L-glutamine and 0.1% penicillin and streptomycin. Cells to be used in the assay were grown to confluency, trypsinated and split to single cell suspension, counted and centrifuged at 1500 rpm for 10 min. […][…] of cell suspension was transferred to each well on a 96-well microtiter plate. The cells were stimulated by adding […] of various concentrations of peptides diluted with assay medium to each well. The final concentrations of peptide were for example: 5, 10, 20, 40, 60, 80, 100, and 200 mg/ml. […] As a negative control only medium was added to the cells, and as a positive control (100% killing) 1% triton X-100 was added. Following an incubation period of 4 h., 20 ml MTT dissolved in PBS at a concentration of 5 mg/ml was added to each well, and the plate was incubated further for 2 h. 130 ml of the supernatant were then removed and […] acid alcohol (0.04-0.1 N HCl in isopropanol) added to each well to dissolve the dark blue crystals. The plate was placed on a shaker for 1 h and read spectrophotometrically at 590 nm in a microtiterplate reader using the Softmaxâ program.

[2] = system: human red blood cells; test: Hemolytic assay; format: cell-based; settings: red cells of human
Method: The hemolytic activities of the peptides were determined using fresh human red blood cells. 8 ml blood was taken from a healthy person. 4 ml blood was transferred to a polycarbonate tube containing heparin to a final concentration of 10 U/ml, and the remaining 4 ml blood was transferred to a glass tube containing EDTA with final concentration of 15% EDTA. The erythrocytes were isolated from heparin-treated blood by centrifugation in 1500 rpm for 10 min and washed three times with phosphate-buffered saline (PBS) to remove plasma and buffy coat. The cell pellet was resuspended in PBS to make the final volume of 4 ml. The peptide was diluted to a concentration of 2 mg/ml and 0.1 mg/ml. The peptide was further diluted to the concentrations as stated in Table 15. For each tube PBS was added first, then RBCs and peptide solutions. The hematocrit in the blood treated with EDTA was determined after 30 min with Sysmex K-1000, and the resuspended RBCs were diluted into 10% hematocrit. RBCs in PBS (1%) with and without peptides (Table 15) were incubated in a shaker at […] for 1 hour and then centrifuged at 4000 rpm for 5 min. The supernatant were carefully transferred to new polycarbonate tubes and the absorbance of the supernatant was measured at 540 nm. Baseline hemolysis was hemoglobin released in the presence of PBS, and 100% hemolysis was hemoglobin released in the presence of 0.1% Triton X-100.

[3] = system: Staphylococcus aureus ATCC 25923; format: cell-based; settings: ATCC 25923
Summary of the method: (§1)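 Bacteria in mid-log phase, grown in 2% Bacto Peptone water, were tested by standard microdilution in 1% Bacto Peptone water at an inoculum of 2×10^6 CFU/ml. Runs were in triplicate, and peptide concentration in the wells was checked by HPLC.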

[4] = system: Escherichia coli ATCC 25922; format: cell-based; settings: ATCC 25922
Summary of the method: as §1

[5] = read-out: MethA IC 50, Table 7, peptide required to kill 50% of MethA cells

Compound | % Hemolysis 10 μg/ml [2] | % Hemolysis 100 μg/ml [2] | EC50 [2] | MIC S. aureus [3] | MIC E. coli [4] | further results
CSCC[C@H](NC(=O)[C@H](CCCNC(=N)N)NC(=O)[C@H](C)NC(=O)[C@H](CCC(N)=O)NC(=O)[C@H](Cc1c(S(=O)(=O)c2c(C)c(C)c3c(c2C)CCC(C)(C)O3)[nH]c2ccccc12)NC(=O)[C@H](CCCNC(=N)N)NC(=O)[C@H](CCCNC(=N)N)NC(=O)[C@H](CSCNC(C)=O)NC(=O)[C@H](CCCCN)NC(=O)[C@H](Cc1ccccc1)NC(=O)OCC1c2ccccc2-c2ccccc21)C(=O)N[C@@H](CCCCN)C(=O)N[C@@H](CCCCN)C(=O)N[C@@H](CC(C)C)C(=O)NCC(=O)N[C@@H](C)C(=O)O [LFB A8 FMOC PMC] (Fmoc-FKC(Acm)RR[Trp(2-Pmc)]QARMKKLGA-OH) | 6.75% | 45.4% |  |  |  | concentration killing Meth A tumor cells ([1]; after 4 hours incubation): 50 µg/mL; concentration killing Meth A tumor cells ([1]; after ½ hour incubation): higher than 100 μg/ml
CSCC[C@H](NC(=O)[C@H](CCCNC(=N)N)NC(=O)[C@H](Cc1c[nH]c2ccccc12)NC(=O)[C@H](C)NC(=O)[C@H](Cc1c[nH]c2ccccc12)NC(=O)[C@H](CCCNC(=N)N)NC(=O)[C@H](CCCNC(=N)N)NC(=O)[C@H](C)NC(=O)[C@H](CCCCN)NC(=O)[C@H](Cc1ccc(-c2ccccc2)cc1)NC(=O)[C@H](Cc1c[nH]c2ccccc12)NC(=O)[C@H](C)NC(=O)[C@@H]1CCCN1)C(=O)N[C@@H](CCCCN)C(=O)N[C@@H](CCCCN)C(=O)N[C@@H](CC(C)C)C(=O)N[C@@H](C)C(=O)N[C@@H](C)C(=O)O [LFB1431A2, 6, 10, 17Bip4] (H-PAW[Bip]KARRWAWRMKKLAA-OH; N-terminus assumed) |  |  | 336 µM |  |  | EC50 ([1]; 4 h): 23.4 µM
PAWRKARRWAWRMKKLAA-OH [LFB 14-31 A2,6, 10, 17R4] |  |  | > 438 µM | 20 µg/mL | 30 µg/mL | IC50 [1, 5]: 75.8 µM
CSCC[C@H](NC(=O)[C@H](CCCNC(=N)N)NC(=O)[C@H](Cc1c[nH]c2ccccc12)NC(=O)[C@H](C)NC(=O)[C@H](Cc1c[nH]c2ccccc12)NC(=O)[C@H](CCCNC(=N)N)NC(=O)[C@H](CCCNC(=N)N)NC(=O)[C@H](CSCNC(C)=O)NC(=O)[C@H](CCCCN)NC(=O)[C@@H](N)Cc1ccccc1)C(=O)N[C@@H](CCCCN)C(=O)N[C@@H](CCCCN)C(=O)N[C@@H](CC(C)C)C(=O)NCC(=O)N[C@@H](C)C(=O)O [LFB A7] (H-FKC(Acm)RRWAWRMKKLGA-OH) |  |  |  | 150 µg/mL (≈ 74.7 µM) | 30 µg/mL (≈ 14.9 µM) | MethA IC50 ([1]; 4 h): 500 µg/mL
PAWRKARRWARRMKKLAA-OH [LFB 14-31 A2,6, 10, 17R4, 11] |  |  | > 444 µM |  |  | IC50 [1, 5]: 75.5 µM
PAWFKARRWAWRMKKL-OH [LFB 14-29 A2,6, 10] |  |  | > 469 µM |  |  | IC50 ([1]; 4 h): > 235 µM
PAWFKARRWAWRMKKLA-OH [LFB 14-30 A2,6, 10, 17] |  |  | > 454 µM |  |  | IC50 ([1]; 4 h): > 227 µM
RRWQWRMKKLG-OH [LFB 20-30] | 2.16% | 3.1% |  | >100 µg/mL | 40 µg/mL | 
CSCC[C@H](NC(=O)[C@H](CCC(=O)O)NC(=O)[C@H](CC(N)=O)NC(=O)[C@H](CCC(N)=O)NC(=O)[C@H](Cc1c[nH]c2ccccc12)NC(=O)[C@H](CCCNC(=N)N)NC(=O)[C@H](CC(C)C)NC(=O)[C@H](CSCNC(C)=O)NC(=O)[C@H](CCCCN)NC(=O)[C@@H](N)CCC(=O)O)C(=O)N[C@@H](CCCNC(=N)N)C(=O)N[C@@H](CCCCN)C(=O)N[C@H](C(=O)NCC(=O)NCC(=O)O)C(C)C [LFM, EKCLRWQNEMRKVGG] (H-EKC(Acm)LRWQNEMRKVGG-OH; N-terminus assumed) | 2.3% | 3.1% |  | >1000 µg/mL | >1000 µg/mL | 
